Columns and labels:
[1] = system: Euschistus heros (Neotropical Brown Stink Bug); test: whole plant or invertebrate; type: in vivo; conditions: 120 h, application rate of 200 ppm, N2 nymphs on sprayed soybean leaves, 5 days after infestation, read-out: effect in at least one of the two categories (mortality or growth inhibition)
[2] = system: Diabrotica Balteata (Corn Root Worm); test: Diabrotica balteata (Corn Root Worm); conditions: in Zea mays, 96 h, read-out: effect in at least one of the two categories (mortality or growth inhibition)
[3] = system: Myzus persicae (Green Peach Aphid); test: whole plant or invertebrate; conditions: foliar, 144 h
[4] = system: Plutella xylostella (Diamond Back Moth); test: whole plant or invertebrate; type: in vivo; conditions: 120 h, application rate of 200 ppm, L2 larvae on treated artificial diet, 5 days after infestation, read-out: effect in at least one of the two categories (mortality or growth inhibition)
[5] = system: Myzus persicae (Green Peach Aphid); test: whole plant or invertebrate; type: in vivo; conditions: 144 h, test rate of 24 ppm, systemic, roots of infested pea seedlings in test solution, 6 days

SMILES: CCSc1cc(OC(C)(C)C(N)=O)cnc1-c1nc2cc(C(F)(F)F)ncc2n1C [Compound P77, 2-[[5-ethylsulfanyl-6-[3-methyl-6-(trifluoromethyl)imidazo[4,5-c]pyridin-2-yl]-3-pyridyl]oxy]-2-methyl-propanamide]
- percent effect (mortality or growth inhibition) at 200 ppm [1]: ≥ 80%

SMILES: C=CCOc1cnc(-c2nc3cc(C(F)(F)F)ncc3n2C)c(SCC)c1 [Compound P95, 2-(5-allyloxy-3-ethylsulfanyl-2-pyridyl)-3-methyl-6-(trifluoromethyl)imidazo[4,5-c]pyridine]
- mortality at 200 ppm [2]: ≥ 80%

SMILES: CCS(=O)(=O)c1cc(OC(C)(C)CS(C)(=O)=O)cnc1-c1nc2cc(C(F)(F)F)ncc2n1C [Compound P49, 2-[5-(1,1-dimethyl-2-methylsulfonyl-ethoxy)-3-ethylsulfonyl-2-pyridyl]-3-methyl-6-(trifluoromethyl)imidazo[4,5-c]pyridine]
- mortality at 200 ppm [3]: ≥ 80%
- percent effect (mortality or growth inhibition) at 200 ppm [1]: ≥ 80%
- percent effect (mortality or growth inhibition) at 200 ppm [4]: ≥ 80%
- mortality at 24 ppm [5]: ≥ 80%

SMILES: CCS(=O)(=O)c1cc(OCc2ccccc2)cnc1-c1nc2cc(C(F)(F)F)ncc2n1C [Compound P94, 2-(5-benzyloxy-3-ethylsulfonyl-2-pyridyl)-3-methyl-6-(trifluoromethyl)imidazo[4,5-c]pyridine]
- mortality at 200 ppm [2]: ≥ 80%

SMILES: CCS(=O)(=O)c1cc(OC(C)(C)COC)cnc1-c1nc2cc(C(F)(F)F)ncc2n1C [Compound P48, 2-[3-ethylsulfonyl-5-(2-methoxy-1,1-dimethyl-ethoxy)-2-pyridyl]-3-methyl-6-(trifluoromethyl)imidazo[4,5-c]pyridine]
- mortality at 200 ppm [3]: ≥ 80%
- percent effect (mortality or growth inhibition) at 200 ppm [4]: ≥ 80%
- mortality at 24 ppm [5]: ≥ 80%

SMILES: CCS(=O)(=O)c1cc(OC(SC)C(=O)N(C)C)cnc1-c1nc2cc(C(F)(F)F)ncc2n1C (stereo not shown) [Compound P36, 2-[[5-ethylsulfonyl-6-[3-methyl-6-(trifluoromethyl)imidazo[4,5-c]pyridin-2-yl]-3-pyridyl]oxy]-N,N-dimethyl-2-methylsulfanyl-acetamide]
- percent effect (mortality or growth inhibition) at 200 ppm [1]: ≥ 80%

SMILES: C#CCOc1cnc(-c2nc3cc(C(F)(F)F)ncc3n2C)c(SCC)c1 [Compound P17, 2-(3-ethylsulfanyl-5-prop-2-ynoxy-2-pyridyl)-3-methyl-6-(trifluoromethyl)imidazo[4,5-c]pyridine]
- mortality at 200 ppm [2]: ≥ 80%

SMILES: CCS(=O)(=O)c1cc(OCc2cc(C3CC3)no2)cnc1-c1nc2cc(C(F)(F)F)ncc2n1C [Compound P83, 3-cyclopropyl-5-[[5-ethylsulfonyl-6-[3-methyl-6-(trifluoromethyl)imidazo[4,5-c]pyridin-2-yl]-3-pyridyl]oxymethyl]isoxazole]
- percent effect (mortality or growth inhibition) at 200 ppm [1]: ≥ 80%
- mortality at 200 ppm [2]: ≥ 80%
- percent effect (mortality or growth inhibition) at 200 ppm [4]: ≥ 80%

SMILES: CCSc1cc(OC2COC2)cnc1-c1nc2cc(C(F)(F)F)ncc2n1C [Compound P2, 2-[3-ethylsulfanyl-5-(oxetan-3-yloxy)-2-pyridyl]-3-methyl-6-(trifluoromethyl)imidazo[4,5-c]pyridine]
- percent effect (mortality or growth inhibition) at 200 ppm [1]: ≥ 80%
- mortality at 200 ppm [2]: ≥ 80%

SMILES: CCS(=O)(=O)c1cc(OCCS(C)(=O)=O)cnc1-c1nc2cc(C(F)(F)F)ncc2n1C [Compound P7, 2-[3-ethylsulfonyl-5-(2-methylsulfonylethoxy)-2-pyridyl]-3-methyl-6-(trifluoromethyl)imidazo[4,5-c]pyridine]
- mortality at 200 ppm [3]: ≥ 80%
- percent effect (mortality or growth inhibition) at 200 ppm [1]: ≥ 80%
- mortality at 24 ppm [5]: ≥ 80%

SMILES: CCS(=O)(=O)c1cc(OCC2(C)COC2)cnc1-c1nc2cc(C(F)(F)F)ncc2n1C [Compound P54, 2-[3-ethylsulfonyl-5-[(3-methyloxetan-3-yl)methoxy]-2-pyridyl]-3-methyl-6-(trifluoromethyl)imidazo[4,5-c]pyridine]
- mortality at 200 ppm [3]: ≥ 80%
- percent effect (mortality or growth inhibition) at 200 ppm [1]: ≥ 80%
- mortality at 24 ppm [5]: ≥ 80%

SMILES: CCS(=O)(=O)c1cc(OCC(=O)N(C)C)cnc1-c1nc2cc(C(F)(F)F)ncc2n1C [Compound P51, 2-[[5-ethylsulfonyl-6-[3-methyl-6-(trifluoromethyl)imidazo[4,5-c]pyridin-2-yl]-3-pyridyl]oxy]-N,N-dimethyl-acetamide]
- percent effect (mortality or growth inhibition) at 200 ppm [1]: ≥ 80%
- mortality at 24 ppm [5]: ≥ 80%

SMILES: CCS(=O)(=O)c1cc(OCCS(C)(=O)=O)ccc1-c1nc2cc(C(F)(F)F)ncc2n1C [Compound P102, 2-[2-ethylsulfonyl-4-(2-methylsulfonylethoxy)phenyl]-3-methyl-6-(trifluoromethyl)imidazo[4,5-c]pyridine]
- mortality at 200 ppm [3]: ≥ 80%
- percent effect (mortality or growth inhibition) at 200 ppm [1]: ≥ 80%
- mortality at 24 ppm [5]: ≥ 80%

SMILES: CCS(=O)(=O)c1cc(OC(C)(C)C(=O)N(C)C)cnc1-c1nc2cc(C(F)(F)F)ncc2n1C [Compound P59, 2-[[5-ethylsulfonyl-6-[3-methyl-6-(trifluoromethyl)imidazo[4,5-c]pyridin-2-yl]-3-pyridyl]oxy]-N,N,2-trimethyl-propanamide]
- mortality at 24 ppm [5]: ≥ 80%

SMILES: CCSc1cc(OCC2CC2)cnc1-c1nc2cc(C(F)(F)F)ncc2n1C [Compound P23, 2-[5-(cyclopropylmethoxy)-3-ethylsulfanyl-2-pyridyl]-3-methyl-6-(trifluoromethyl)imidazo[4,5-c]pyridine]
- mortality at 200 ppm [3]: ≥ 80%
- mortality at 200 ppm [2]: ≥ 80%
- percent effect (mortality or growth inhibition) at 200 ppm [4]: ≥ 80%

SMILES: CCS(=O)(=O)c1cc(OC/C(C)=N/OC)cnc1-c1nc2cc(C(F)(F)F)ncc2n1C [Compound P64, 1-[[5-ethylsulfonyl-6-[3-methyl-6-(trifluoromethyl)imidazo[4,5-c]pyridin-2-yl]-3-pyridyl]oxy]-N-methoxy-propan-2-imine]
- mortality at 200 ppm [3]: ≥ 80%
- percent effect (mortality or growth inhibition) at 200 ppm [1]: ≥ 80%
- percent effect (mortality or growth inhibition) at 200 ppm [4]: ≥ 80%

SMILES: CCS(=O)(=O)c1cc(OC(F)(F)CBr)cnc1-c1nc2cc(C(F)(F)F)ncc2n1C [Compound P109, 2-[5-(2-bromo-1,1-difluoro-ethoxy)-3-ethylsulfonyl-2-pyridyl]-3-methyl-6-(trifluoromethyl)imidazo[4,5-c]pyridine]
- percent effect (mortality or growth inhibition) at 200 ppm [4]: ≥ 80%

SMILES: CCS(=O)(=O)c1cc(OCS(C)(=N)=O)cnc1-c1nc2cc(C(F)(F)F)ncc2n1C (stereo not shown) [Compound P80, [5-ethylsulfonyl-6-[3-methyl-6-(trifluoromethyl)imidazo[4,5-c]pyridin-2-yl]-3-pyridyl]oxymethyl-imino-methyl-oxo-$|^6-sulfane]
- mortality at 200 ppm [3]: ≥ 80%
- percent effect (mortality or growth inhibition) at 200 ppm [1]: ≥ 80%
- mortality at 24 ppm [5]: ≥ 80%

SMILES: CCS(=O)(=O)c1cc(OC(C)(C)C(=O)NC)cnc1-c1nc2cc(C(F)(F)F)ncc2n1C [Compound P55, 2-[[5-ethylsulfonyl-6-[3-methyl-6-(trifluoromethyl)imidazo[4,5-c]pyridin-2-yl]-3-pyridyl]oxy]-N,2-dimethyl-propanamide]
- mortality at 200 ppm [3]: ≥ 80%
- mortality at 24 ppm [5]: ≥ 80%

SMILES: CCS(=O)(=O)c1cc(OS(=O)(=O)C(F)F)cnc1-c1nc2cc(C(F)(F)F)ncc2n1C [Compound P91, [5-ethylsulfonyl-6-[3-methyl-6-(trifluoromethyl)imidazo[4,5-c]pyridin-2-yl]-3-pyridyl] difluoromethanesulfonate]
- mortality at 200 ppm [2]: ≥ 80%

SMILES: CCSc1cc(OC(C#N)(CC)CC)cnc1-c1nc2cc(C(F)(F)F)ncc2n1C [Compound P43, 2-ethyl-2-[[5-ethylsulfanyl-6-[3-methyl-6-(trifluoromethyl)imidazo[4,5-c]pyridin-2-yl]-3-pyridyl]oxy]butanenitrile]
- percent effect (mortality or growth inhibition) at 200 ppm [1]: ≥ 80%

SMILES: CCS(=O)(=O)c1cc(OC(C(=O)N(C)C)S(C)(=O)=O)cnc1-c1nc2cc(C(F)(F)F)ncc2n1C (stereo not shown) [Compound P38, 2-[[5-ethylsulfonyl-6-[3-methyl-6-(trifluoromethyl)imidazo[4,5-c]pyridin-2-yl]-3-pyridyl]oxy]-N,N-dimethyl-2-methylsulfonyl-acetamide]
- mortality at 24 ppm [5]: ≥ 80%

SMILES: CCSc1cc(OCC(C)(C)C)cnc1-c1nc2cc(C(F)(F)F)ncc2n1C [Compound P25, 2-[5-(2,2-dimethylpropoxy)-3-ethylsulfanyl-2-pyridyl]-3-methyl-6-(trifluoromethyl)imidazo[4,5-c]pyridine]
- mortality at 200 ppm [3]: ≥ 80%
- percent effect (mortality or growth inhibition) at 200 ppm [4]: ≥ 80%

SMILES: CCSc1cc(OC2(C)COC2)cnc1-c1nc2cc(C(F)(F)F)ncc2n1C [Compound P14, 2-[3-ethylsulfanyl-5-(3-methyloxetan-3-yl)oxy-2-pyridyl]-3-methyl-6-(trifluoromethyl)imidazo[4,5-c]pyridine]
- mortality at 200 ppm [2]: ≥ 80%
- percent effect (mortality or growth inhibition) at 200 ppm [4]: ≥ 80%

SMILES: CCS(=O)(=O)c1cc(OC(SC)C(=O)NC)cnc1-c1nc2cc(C(F)(F)F)ncc2n1C (stereo not shown) [Compound P37, 2-[[5-ethylsulfonyl-6-[3-methyl-6-(trifluoromethyl)imidazo[4,5-c]pyridin-2-yl]-3-pyridyl]oxy]-N-methyl-2-methylsulfanyl-acetamide]
- mortality at 200 ppm [3]: ≥ 80%
- percent effect (mortality or growth inhibition) at 200 ppm [1]: ≥ 80%

SMILES: CCS(=O)(=O)c1cc(OS(C)(=O)=O)cnc1-c1nc2cc(C(F)(F)F)ncc2n1C [Compound P93, [5-ethylsulfonyl-6-[3-methyl-6-(trifluoromethyl)imidazo[4,5-c]pyridin-2-yl]-3-pyridyl] methanesulfonate]
- mortality at 200 ppm [3]: ≥ 80%
- percent effect (mortality or growth inhibition) at 200 ppm [4]: ≥ 80%
